From a melting point compilation (Tetko et al.; mined from patent text by program, amines drawn as free bases though some values may be those of a salt)
Residues, ends and D or L forms follow the SMILES beside them. *: point of attachment. Cbz = O=C(OCc1ccccc1)*

SMILES | melting point [°C]
CCOC(=O)C(=CNc1cccc(OCC)n1)C(=O)OCC | 58 to 60
C#CCOc1cc(Cl)ccc1-n1c(=O)cc(C(F)(F)F)n(C)c1=O | 147 to 148
Nc1nc2c(ncn2OCCCOCP(=O)(O)O)c(=O)[nH]1 | 247 to 250
Cc1ccc(C)c(NC(=O)CCc2ccc(O)c(N)c2)c1 | 162 to 163
CN1C(=O)C(c2ccc(OC(F)F)cc2)(c2cccc(C#CCCO)c2)N=C1N (centres undefined) | 90 to 93
O=[N+]([O-])c1ccccc1COc1cccc2cccnc12 | 152
Cn1ncc(C(=O)N2CCOCC2)c1C(=O)Nc1ccn2nc(N3CCCC3)nc2c1 | 194 to 197
CN(Cc1cc(C(F)(F)F)cc(C(F)(F)F)c1)C(=O)c1c(-c2ccc(F)cc2)c2ccsc2c(=O)n1C | 196 to 197
COc1cc(C(=O)O)ccc1-c1nc2cc3c(cc2[nH]1)NC(=O)C3(C)C | 315 to 319
NS(=O)(=O)c1ccc(-c2cc(-c3nc(-c4ccc(Cl)cc4)cc(C(F)(F)F)n3)ccn2)s1 | 290
Nc1ccc(Nc2c(CC3CC4C=CC3C4)cc(C(=O)O)cc2S(N)(=O)=O)cc1 (centres undefined) | 245
c1ccc(N=C(Nc2ccccc2)c2ccccc2)cc1 | 143 to 144
COc1cc2c(cc1Br)C(C)(C)CCC2(C)C | 77 to 78
Cc1nnc2n1-c1sc(Cc3ccccc3)cc1C(c1ccccc1Cl)=NC2 | 161 to 163
CC(C)Oc1ccc(CCCCOc2cc(CCC(=O)O)n(C(C)C)n2)c(Oc2ncc(C(F)(F)F)cc2Cl)c1 | 99.5 to 100
C#CC1(OC(C)=O)CCC2C3CC(=C)C4=CC(=O)CCC4(C)C3CCC21C (centres undefined) | 158 to 160
O=C(NNS(=O)(=O)c1ccccc1)c1ccccc1Br | 154 to 156
CCOC(=O)CCCNc1ccc2oc(-c3ccc4ccc(Cl)cc4n3)cc2c1 | 154 to 155
C#Cc1ccc(C(=O)OC(C)(C)C)cc1 | 71.5 to 72
CCOC(=O)c1nn(C)c(OC(F)F)c1CO | 90 to 91
COC(=O)c1cccc(-c2nc(-c3ccc(C(F)(F)F)cc3)cs2)c1 | 142 to 143
NC(=O)c1ccc(OC2CCN(Cc3ccccc3)CC2)cc1 | 166 to 168
CCOC(=O)N[C@H](C(=O)NN(Cc1ccc(-c2cncs2)cc1)C[C@H](O)[C@H](Cc1ccccc1)NC(=O)[C@@H](NC(=O)OC)C(C)C)C(C)C | 243 to 244
COc1ccc(NCC(C)C#N)c([N+](=O)[O-])c1 (centres undefined) | 114 to 115
OCc1ccc(-c2csc(-c3cn([C@H]4CN5CCC4CC5)nn3)c2)cc1 | 196

SMILES | melting point [°C]
COCCNC(=O)c1nc(NC(C)=O)c2cc(Cc3ccc(F)cc3)cnc2c1OCc1ccccc1 | 147 to 149
COc1cccc(/C=C/c2nc3c(c(=O)n(C)c(=O)n3C)n2C)c1OC | 234 to 237
CS(=O)c1ccccc1S(=O)(=O)c1ccc(NC(=O)C(C)(O)C(F)(F)F)c(Cl)c1 (centres undefined) | 118 to 120
O=C1N[C@H](Cc2ccc(C(F)(F)F)cc2)[C@H](c2ccc(Cl)nc2)O1 (racemic) | 176 to 177
COc1ccc2c(c1)CCn1c-2ncc(C(=O)O)c1=O | 232 to 234
CCOC(=O)c1cnoc1-c1cccc(OC)c1 | 85 to 87
COC(OC)C1(C)CCc2c(C)c(O)c(C)c(C)c2O1 (centres undefined) | 102 to 106
N#Cc1ccc2c(c1)C(=C(Cl)Cl)OC(=C(Cl)Cl)O2 | 167 to 168
CC(Cl)(Cl)C(NC(=O)c1cccc(Cl)c1)NC(=NC#N)Nc1ccc(Cl)nc1 (centres undefined) | 138 to 140
O=C1NC(=O)C2(CCc3cc(F)ccc32)N1 (racemic) | > 260
CC(=O)Oc1ccc(-c2ccc3cc(OC(C)=O)ccc3c2)cc1 | 178 to 180
O=C1c2ccccc2-c2[nH]c(=O)cnc21 | > 300
COc1cc(NC(=O)CC23CC4CC(CC(C4)C2)C3)c(C)c([N+](=O)[O-])c1 | 141 to 142
Oc1ccc2c(c1O)C(=Cc1ccnc3ccccc13)c1ccccc1-2 | 315
CN1C(=O)CN=C(c2ccccc2F)c2c1ccc(NC(=O)Nc1ccc(Cl)cc1)c2Cl | 285
CCCc1nn(CC)c(CO)c1Cc1ccc(-c2ccccc2NS(=O)(=O)C(F)(F)F)cc1 | 59 to 64
CCS(=O)(=O)c1ccc2cc(C(C)=O)ccc2c1 | 133
O=c1[nH][nH]c(C(F)(F)F)c1Cc1ccc2ccccc2c1 | 165 to 167
COC(=O)C1=C(C(F)F)NC(C)=C(C(=O)OC2CCCC2)C1c1cccc([N+](=O)[O-])c1C (centres undefined) | 154 to 156
C=CC(=O)NC1CCCCC1 | 109 to 110
N#Cc1nc(NCc2cnn(-c3c(Cl)cc(C(F)(F)F)cc3Cl)n2)[nH]c1C#N | 213 to 215
Cc1nn(C)c(OC(=O)C(Cl)=C(Cl)Cl)c1C(=O)c1ccc(Cl)cc1Cl | 141 to 142
COc1cc2c(cc1OC)C(C)=[N+]([O-])CN2 | 161 to 163
CC(F)(F)C1(O)c2cc(Cl)ccc2Nc2ncccc21 (centres undefined) | 188 to 190
CCCCS(=O)(=O)c1c(Cl)nc(Cl)nc1Cl | 71 to 72

SMILES | melting point [°C]
Nc1cc(-n2c(=O)n(-c3ccccc3)c3ccccc32)ccn1 | 184 to 185
Nc1c(-c2ccc(Br)cc2)nc2ccc(Cl)cc2c1C(=O)O | 241 to 242
O=c1oc2cc(O)cc(O)c2c(O)c1C1=CCOc2oc3ccccc3c(=O)c21 | 254 to 256
CCNCC1CN(c2c(F)cc3c(=O)c(C(=O)O)cn(C4CC4)c3c2F)C1 | 237 to 242
CC1CN(c2ccc(Cl)cn2)N=C1N (centres undefined) | 159 to 160
C=C(C(=O)c1ccc(Cl)cc1)c1ccccc1 | 42
CNC(=O)CCSSCCC(=O)NC | 113 to 115
COc1ccc(C(OCC2OC(n3cnc4c(=O)[nH]c(NC(=O)Cc5ccc(Cl)cc5)nc43)CC2O)(c2ccccc2)c2ccc(OC)cc2)cc1 (centres undefined) | 150 to 155
CCCCCCCCCCCCCCCCCCN(C)S(=O)(=O)c1cc(C(=O)OC)c([N+](=O)[O-])c(C(=O)OC)c1 | 70 to 72
CCCC(C)(CCl)c1cc(Cl)nnc1Cl (centres undefined) | 68 to 69
CSc1cc(C)nc(SC)c1NC(=O)CCCBr | 139 to 140
O=C(OCC1OC(n2cc(I)c(=O)[nH]c2=O)C(F)C1OC(=O)c1ccccc1)c1ccccc1 (centres undefined) | 197
Cc1ncsc1C(=O)Nc1ccc(-n2nc(C(F)(F)F)c(Cl)c2C2CC2)nc1 | 144 to 149
N=C(N)NCCCC(NC(=O)C1CCCN1C(=O)C(CCCCNC(=O)OCc1ccccc1)NC(=O)CNC(=O)OCc1ccccc1)C(=O)O (centres undefined) (Cbz-GK(Cbz)PR-OH; configuration not given here) | 175
c1ccc2c(c1)C[C@H]1Cc3ccccc3[C@H]1O2 (relative stereo) | 59 to 60
CC(C)(C)c1cc(-c2n[nH]c(=S)o2)cc(C(C)(C)C)c1O | 254
Cc1ccc2c(c1)CSc1nnc(C)n1-2 | 168
COc1cccc(C(CN2CCN(c3cccc(C(F)(F)F)c3)CC2)C2(O)CCCC2)c1 (centres undefined) | 158 to 160
Cc1oncc1C(=O)Nc1ccc(NC(=O)CBr)cc1 | 179
ClCc1ccc(-c2nsc3ccccc23)cc1 | 86 to 89
COCCOCCOc1ccc(C=O)cc1 | 44 to 47
COc1cn(C)c(=O)c(OS(=O)(=O)C(F)(F)F)n1 | 107 to 108
O=C(CCCC(=O)N1C(=O)OC[C@@H]1Cc1ccccc1)c1ccc(F)cc1 | 114
COC(=O)/C=C/Cn1c(=O)c2cc(C(=O)NCc3ccc(OC)cc3)sc2n(C)c1=O | 169 to 171
Cc1cnc2c(c1)cc1c3c(cc([N+](=O)[O-])cc32)C(=O)OC1=O | 261 to 262

SMILES | melting point [°C]
CN1Cc2c(-c3noc(CN)n3)ncn2-c2ccccc2C1=O | 192 to 195
CCCCCCCCCCCCc1ccc(S(=O)(=O)Nc2nnc(CC(=O)OCC)s2)cc1 | 108 to 109
O=C1CCC(c2ccc(OCCCN3C(=O)c4ccccc4C3=O)c(Cl)c2)=NN1 | 230 to 232
O=C(O)c1cc(OCC(F)(F)F)cc(Oc2cccc(C(F)(F)F)c2)n1 | 93 to 95
Cc1ccc(O)c(C(C)(O)c2ccccc2)c1 (centres undefined) | 100
Brc1cnc(-c2ccccc2)c2ccccc12 | 123 to 125
Nc1ccc(CCNC(=O)c2cc(O)c(O)c(O)c2)cc1 | 167 to 169
CC(C)c1cc(Oc2ccccc2)cc(C(C)C)c1N | 71 to 72
O=C(O)c1cccc(-c2cccc3c2OC(Cc2cccc(C(F)(F)F)c2)C3)c1 (centres undefined) | 156 to 157
CCC(C)NC1=NS(=O)(=O)c2sc(C)cc2N1 (centres undefined) | 224 to 225
COC(=O)c1cccc(C(=O)CC(=O)c2ccccc2)c1 | 106 to 108
CC(=O)NC1(c2ccccc2Cl)CCC=CC1=O (centres undefined) | 144 to 145
CCOc1ccc([N+](=O)[O-])cc1I | 81 to 83
Cc1cc(SC2=C(O)CC(CCc3ccsc3CO)(C(C)C)OC2=O)c(C(C)(C)C)cc1CO (centres undefined) | 87 to 90
COc1cc(-c2cnc3[nH]cc(C(=O)C4(C)CCCC(C)C4)c3n2)cc(OC)c1OC (centres undefined) | 229 to 231
OC1(C2CC2)c2ccccc2OCc2ncccc21 (centres undefined) | 210 to 212
Cc1noc(-c2ncn3c2[C@@H]2CCN2C(=O)c2c-3cccc2C(F)(F)F)n1 | 255 to 256
CCOC(=O)c1oc2ccc(Cc3ccc(O)cc3)c(O)c2c1C | 182 to 184
Cc1cc(-c2nc3cc(Cl)cc(Cl)c3c(=O)[nH]2)cc(C)c1OCCN1CCCC1 | 209 to 210
CCN(CC)C(=O)c1nc(-c2c(Cl)cc(C(F)(F)F)cc2Cl)[nH]c1C#N | 195 to 197
O=c1c2c(nc3c(OCc4ccccc4)cccn13)CCC2 | 150 to 152
CCOC(=O)c1cc2cc([N+](=O)[O-])cc(CC)c2o1 | 114 to 116
O=C(OCCCCl)c1ccc([N+](=O)[O-])cc1[N+](=O)[O-] | 40
CCCCCc1c(C(C)C)nc(C(C)C)c(CO)c1-c1ccc(F)c(C(O)c2ccc(F)cc2)c1 (centres undefined) | 118 to 120
